The subject of assay [1] is C. parvum DMC1 expression. The assay can be described thus: Sexual differentiation assay (DMC1 expression). The following applies: compound at asexual EC90, 48-72 h. It counts as cell-based, Cryptosporidium parvum. Put shortly: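 Compounds applied at their previously determined asexual-assay EC90, and % inhibition of DMC1 expression reported. Readout: 4% paraformaldehyde fixation, immunostaining with mAb 1H10G7 plus fluorescein-lectin and Hoechst, tiled 20× imaging in 384-well format, ImageJ analysis counting lectin-positive then DMC1-positive parasites.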

The next assay concerns purified N-WASp. Also on record: method as in PMID 15235593. Particulars: at 10 µM; cited from earlier work.
The test system of another assay is C. parvum. The assay can be described thus: DNA replication assay (EdU incorporation). Particulars: compound at EC90. It counts as cell-based, Cryptosporidium parvum.

Regarding `CN(C)C[C@H](O)Cn1c2ccc(Br)cc2c2cc(Br)ccc21` (racemic) [Wiskostatin], in assay [1] (average of replicates), the “Asexual to sexual differentiation: Mean % DMC1 inhibition (normalized to host nuclei), Average” value turned out to be 45.76%. In addition, the “Asexual to sexual differentiation: Mean % DMC1 inhibition (normalized to host nuclei), Replicate 1a” value in assay [1] (single replicate 1) came to 43.95%. Besides, the “Asexual to sexual differentiation: Mean % DMC1 inhibition (normalized to host nuclei), Replicate 2a” value in assay [1] (single replicate 2) is recorded as 47.58%. Besides, the “inhibition of purified N-WASp” value in the assay on purified N-WASp was “inhibit purified N-WASp”. Besides, the “DNA Synthesis Assay: Mean % Inhibition of EdU-labeling (normalized to parasite numbers), Average” value in the assay on C. parvum (average of replicates) worked out at 36.39%. Also, in the assay with C. parvum (result in words), the “effect on C. parvum DNA replication / EdU incorporation” value was “active”. In addition, the “DNA Synthesis Assay: Mean % Inhibition of EdU-labeling (normalized to parasite numbers), Replicate 1” value in the assay on C. parvum (single replicate 1) was 67.16%. Further, in the assay with C. parvum (single replicate 2), the “DNA Synthesis Assay: Mean % Inhibition of EdU-labeling (normalized to parasite numbers), Replicate 2” value was 42.34%. The “DNA Synthesis Assay: Mean % Inhibition of EdU-labeling (normalized to parasite numbers), Replicate 3” value in the assay with C. parvum (single replicate 3) turned out to be 31.25%. Also, in the assay with C. parvum (single replicate 4), the “DNA Synthesis Assay: Mean % Inhibition of EdU-labeling (normalized to parasite numbers), Replicate 4” value stood at 4.83%.

(Values after publication PMC6478823, “A suite of phenotypic assays to ensure pipeline diversity when prioritizing drug-like Cryptosporidium growth inhibitors” (Nature Communications, 2019).)
